Consider twelve compounds from ChEMBL document CHEMBL1201862, “PubChem BioAssay data set” (2004).

The term GI50 denotes the concentration at which growth is held to half of that of the control.

Holding throughout (assay): DTP human tumour cell line panel, 48 h
The test system of assay [1] is SNB-75.
In assay [2] the test system is DU-145.
Assay [3] relates to OVCAR-4.
Assay [4] relates to NCI-H23.
Assay [5] has as its system U-251.
Assay [6] has as its system HOP-92.
Assay [7] relates to EKVX.
Assay [8] has as its system SN12C.
The subject of assay [9] is UACC-257.
For assay [10], the system named is SR.
For assay [11], the system named is MDA-MB-435.
Assay [12] deals with SW-620.
Assay [13] relates to ACHN.
In assay [14] the test system is BT-549.
For assay [15], the system named is OVCAR-3.
Assay [16] has as its system SK-MEL-28.
The subject of assay [17] is NCI-H522.
In assay [18] the test system is SK-MEL-2.
For assay [19], the system named is HOP-62.
For assay [20], the system named is LXFL 529.

The structures appear in SMILES notation.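 Where inhibition never reached the appropriate level, the endpoint shown equals the highest concentration tested. Otherwise, values were interpolated linearly from a five-concentration, 48-hour dose response in 96-well plates. GI50 is the concentration that inhibits growth by half.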 Activity calls are given as the source filed them. Rule as the data show it: active = GI50 up to about 1.1 µM and inactive = higher.

Turning to `Nc1nc(N)c(N=Nc2ccc([As](=O)(O)O)c(O)c2)c(N)n1`, the GI50 in [1] was 11.5 µM (inactive); in assay [2], 7.5 µM (inactive); in assay [3], 32.1 µM (inactive); in assay [4], 7.57 µM (inactive); in assay [5], 22.9 µM (inactive); in assay [6], 35.3 µM (inactive). For the same compound, the GI50 in [7] was > 63.5 µM (inactive); in assay [8] it was 12.1 µM (inactive); in [9] it was 91.6 µM (inactive); in [10] it was 0.834 µM (active); in assay [11], 0.82 µM (active); in assay [12], 4.89 µM (inactive). Further, the GI50 in assay [13] was 49 µM (inactive); in assay [14], 32.4 µM (inactive); in [15], 3.61 µM (inactive); in assay [16] it was > 100 µM (inactive); in [17] it was 3.5 µM (inactive); in assay [18] it was > 21.1 µM (inactive). In addition, the GI50 in [19] is 8.59 µM (inactive).
As to `CC(=O)Nc1ccc(-c2nnc(SCC(=O)Nc3ccc(Cl)cc3Cl)o2)cc1`, the GI50 in assay [1] was 31.3 µM (inactive); in assay [3], 37.4 µM (inactive); in assay [4], 26.2 µM (inactive); in assay [5], 18 µM (inactive); in [8], 20.2 µM (inactive); in assay [9], 44.2 µM (inactive). The GI50 in [12] was 32.4 µM (inactive); in assay [13] it was 44.6 µM (inactive); in assay [15], 18.6 µM (inactive); in [16], > 100 µM (inactive); in assay [20], 19.3 µM (inactive); in assay [17], 20.7 µM (inactive). Besides, the values for the GI50 in assay [18] and in [19] were > 100 µM (inactive) and 70 µM (inactive), respectively.
For `CC(=O)SC(C[N+](=O)[O-])c1ccc2c(c1)OCO2` (stereo unspecified), the GI50 was 9.59 µM (inactive) in assay [1]; 11 µM (inactive) in assay [2]; 13.6 µM (inactive) in [3]; 5.89 µM (inactive) in assay [4]; 5.37 µM (inactive) in assay [5]; 12 µM (inactive) in assay [6]. The GI50 was 21.4 µM (inactive) in assay [7]; 5.73 µM (inactive) in [8]; 9.1 µM (inactive) in assay [9]; 2.5 µM (inactive) in assay [10]; 3.54 µM (inactive) in assay [11]; 3.24 µM (inactive) in assay [12]. Besides, the GI50 is 8.81 µM (inactive) in assay [13]; 6.17 µM (inactive) in assay [14]; 8.24 µM (inactive) in assay [15]; 3.15 µM (inactive) in assay [16]; 5.22 µM (inactive) in assay [17]; 6.19 µM (inactive) in assay [18]. Also, the GI50 in assay [19] was 17.4 µM (inactive).
With `O=C1C=C(Nc2ccccc2C(=O)CC(=O)C(=O)Nc2cccc([N+](=O)[O-])c2)c2ccccc2C1=O`, the GI50 in assay [1] was 64.7 µM (inactive); in assay [3], 26.9 µM (inactive); in [4], 26.9 µM (inactive); in [5], 32.4 µM (inactive); in [6], 37.1 µM (inactive); in assay [7], > 100 µM (inactive). The GI50 in assay [8] was 23.4 µM (inactive); in [9], 27.2 µM (inactive); in assay [12], 25.6 µM (inactive); in assay [13], > 100 µM (inactive); in [15], 14.2 µM (inactive); in assay [16], 46 µM (inactive). Further, the GI50 in assay [20] is 32.4 µM (inactive); in assay [17] it was 21.8 µM (inactive); in assay [18] it was 56 µM (inactive); in assay [19], > 100 µM (inactive).
Turning to `CCOc1ccc(NC(=O)CC2Sc3ccccc3NC2=O)cc1` (stereo unspecified), the GI50 in [1] is 31.6 µM (inactive); in assay [3], 18.4 µM (inactive); in assay [4] it was > 100 µM (inactive); in [5] it was 45 µM (inactive); in assay [7] it was > 100 µM (inactive); in assay [8] it was > 100 µM (inactive). Besides, the GI50 in assay [9] is > 100 µM (inactive); in assay [12], 14.5 µM (inactive); in assay [13] it was 49.8 µM (inactive); in [15] it was 42.3 µM (inactive); in [16], > 100 µM (inactive); in [20], > 100 µM (inactive). Moreover, the GI50 is > 100 µM (inactive) in assay [17] and 44.9 µM (inactive) in [19].
As for `COC(=O)CCC(=O)NC1c2cccc3cccc(c23)Cn2c(=O)n(C)c(=O)n21` (stereo unspecified), the GI50 in [1], in assay [2], in assay [3], in [4], in assay [5] and in [6] was > 100 µM (inactive) throughout. Also, the GI50 in assay [7], in [8], in [9], in assay [10], in assay [11] and in assay [12] was > 100 µM (inactive) each time. For the same compound, the GI50 in assay [13], in [14], in assay [15], in assay [16], in assay [17] and in [18] was > 100 µM (inactive) each time. For the same compound, the GI50 in [19] is > 100 µM (inactive).
Take `COC(=O)N/N=C(\C)CC(=O)Nc1ccc(Cl)cc1`: the GI50 in [1] is 98.6 µM (inactive); in assay [4], > 100 µM (inactive); in assay [5] it was > 100 µM (inactive); in assay [6] it was > 100 µM (inactive); in assay [7], 46.7 µM (inactive); in [9] it was > 100 µM (inactive). Also, the GI50 in [12] is > 100 µM (inactive); in assay [15], > 100 µM (inactive); in [16], > 100 µM (inactive); in [20], > 100 µM (inactive); in assay [17], 58.5 µM (inactive); in assay [18], > 100 µM (inactive). Further, the GI50 in [19] was > 100 µM (inactive).
Regarding `O=c1[nH]nc2c3n[nH]c(=O)n3c3ccccc3n12`, the GI50 in assay [1] was 57.5 µM (inactive); in assay [3], > 100 µM (inactive); in assay [4], > 100 µM (inactive); in assay [5], > 100 µM (inactive); in [6], 63.7 µM (inactive); in [7] it was 93.8 µM (inactive). Besides, the GI50 in assay [8], in assay [9], in [12], in assay [13], in assay [15] and in [16] was > 100 µM (inactive) throughout. Further, the GI50 in assay [20] was > 100 µM (inactive); in assay [17], 66.1 µM (inactive); in [18], > 100 µM (inactive); in assay [19], > 100 µM (inactive).
For `OC12CC/C(=N/OCc3ccccc3)CC1c1ccccc12` (stereo unspecified), the GI50 in assay [1] is 39.7 µM (inactive); in [3], > 100 µM (inactive); in assay [4], > 100 µM (inactive); in assay [5], > 100 µM (inactive); in assay [7], > 100 µM (inactive); in assay [8], > 100 µM (inactive). The GI50 in [9], in assay [13], in assay [15], in assay [16], in assay [20] and in assay [17] was > 100 µM (inactive) throughout. The GI50 in assay [18] and in [19] was > 100 µM (inactive) throughout.
For `FC(F)(F)c1cnc(N/N=C(/c2ccccc2)c2ccccn2)c(Cl)c1`, the GI50 in assay [1] was 6.25 µM (inactive); in assay [2] it was 6.64 µM (inactive); in assay [3] it was 7.76 µM (inactive); in assay [4], 7.26 µM (inactive); in assay [5], 4.9 µM (inactive); in assay [6], 8.75 µM (inactive). Moreover, the GI50 in [7] was 3.43 µM (inactive); in assay [8], 7.52 µM (inactive); in assay [9], 2.49 µM (inactive); in assay [10] it was 2.76 µM (inactive); in assay [11], 6.87 µM (inactive); in assay [12] it was 3.02 µM (inactive). Besides, the GI50 in assay [13] is 3.21 µM (inactive); in assay [14], 11.1 µM (inactive); in assay [15], 3.37 µM (inactive); in assay [16], 11.4 µM (inactive); in [17], 1.9 µM (inactive); in assay [18], 8.18 µM (inactive). The GI50 in assay [19] is 7.4 µM (inactive).
For `C=CC/C(C(=O)OC)=C(/C(=O)OC)N(CCC)CCC`, the GI50 in assay [1] is > 100 µM (inactive); in [2], > 100 µM (inactive); in assay [3], > 100 µM (inactive); in assay [4], > 100 µM (inactive); in assay [5], 59.4 µM (inactive); in assay [6] it was 64 µM (inactive). The GI50 in assay [7] is 74.3 µM (inactive); in assay [8], > 100 µM (inactive); in assay [9] it was > 100 µM (inactive); in assay [10] it was 16.4 µM (inactive); in assay [11], > 100 µM (inactive); in [12], 76.7 µM (inactive). In addition, the GI50 in assay [13] is 86.9 µM (inactive); in [14] it was > 100 µM (inactive); in assay [15], 36.1 µM (inactive); in [16], > 100 µM (inactive); in assay [17], 83.8 µM (inactive); in assay [18] it was > 100 µM (inactive). In addition, the GI50 in [19] is > 100 µM (inactive).
As to `N=C(N)Nc1ccc(CC(N)C(=O)O)cc1` (stereo unspecified), the GI50 in assay [1], in assay [2], in [3], in [4], in assay [5] and in assay [6] was > 12.5 µM (inactive) in each case. The GI50 in [7], in [8], in assay [9], in assay [10], in assay [11] and in assay [12] was > 12.5 µM (inactive) throughout. Moreover, the GI50 in assay [13], in [14], in [15], in [16], in assay [17] and in [18] was > 12.5 µM (inactive) in each case. Also, in assay [19], the GI50 was > 12.5 µM (inactive).
